Where two headings read alike, the source gives them in different places.
Assays:
[1] = test system: mouse cortical neuron; assay: Whole-cell patch-clamp of mouse cortical neuron, perfusion of TzGly; format: cell-based; conditions: 1 μM
Text: FIGS. 13A and 13B: FIG. 13A depicts the structure of TzGly. […] The measurement results were obtained by the whole-cell patch-clamp method, as known and used in the art.

[2] = test system: Retzius (Rz) cells in the ganglion; assay: Intracellular voltage recording of leech ganglion neuron with Xe flash irradiation; format: cell-based, Hirudo medicinalis; conditions: for action potential activity on addition to saline, before irradiation: ~100 μM in saline, no light flash; for action potential activity after light flash: pulsed Xe lamp flash, UV removed by band-pass filter at 500 nm
Protocol: Hirudo medicinalis has a central nerve cord with several ganglia, each one containing about 400 neurons arranged in a known pattern. (W.-R. Schlue et al., 1980, J. Exp. Biol., 82:23-34). An entire ganglion was mounted on a dish. The transmembrane potential for a single cell (a neuron) in the ganglion was recorded by inserting inside the neuron a glass micropipet with a micrometer-sized end, filled with saturated aqueous KCl that acts as a luggin bridge for an Ag/AgCl electrode. Another Ag/AgCl electrode was used as a reference. The signal was taken with an AM-System 1600 amplifier, and the entire setup was covered with a Faraday cage. A 12 bit A/D acquisition card was used to digitize the data using an ad-hoc program written in QuickBasic.
Low Ca^2+-high Mg^2+ saline solution (NaCl, 102 mM; KCl, 4 mM; CaCl2: 1 mM; and MgCl2: 10 mM; Tris base, pH 5.4 adjusted to 7.4) was perfused through the dish. […] A pulsed Xe lamp located under the dish was used to irradiate the solution. UV light was removed using a band-pass filter at 500 nm.
After impaling the cell with an electrode, many experiments were performed on the same cell to ensure reproducibility. […] 300 seconds later, at 5500 s, a light flash was directed to the ganglion.

[3] = UV-vis spectra of Ru(bpy)2(4AP)2 before and after photolysis; dark stability and recombination; format: physicochemical
Protocol: The photoproducts after exposure to light were Ru(bpy)2(4AP)(H2O) and free 4AP.
(§1) UV-vis spectra in water were obtained with an HP 8453 diode array spectrophotometer. RMN ^1H spectra were obtained using a Bruker 500 MHz equipment. CV measurements were performed with a PAR 273A potentiostat. Irradiation was effected by means of a pulsed Xe lamp, (pulse energy ˜0.5 J), with a low-pass filter at 480 nm. Irradiation using a 473 nm DPSS laser gave similar results.

[4] = 1H NMR before and after irradiation with visible light (photorelease of 4AP); format: physicochemical; conditions: after irradiation with visible light, from NMR signal integration
Protocol: as §1
Although at pH 7 the spectrum of the irradiated complex is very similar to that of the original complex, a diminished shoulder at 470 nm becomes evident. To determine the nature of the photoreaction, NMR spectra were taken before and after irradiation with visible light. […] After irradiation, this signal decreased, and two new signals appeared at lower fields: one corresponding to the free ligand (m3), and the other corresponding to the aquo-4AP complex (m2), indicating photorelease of the 4AP. These two latter signals integrated for 0.30 and 0.27 of the initial signal, which corresponds to a photoreaction of 60%.

[5] = Cyclic voltammetry in water, RuIII/RuII redox potential; format: physicochemical; conditions: measured in water
Protocol: The supporting electrolyte was KNO3 (1 M). dE/dt=100 mV/s in glassy carbon electrode.
as §1
(§2) (See, e.g., E. S. Dodsworth et al., 1986, Chem. Phys. Lett., 124:152-158). The photoactivity of these compounds has been explained in terms of a reaction pathway that involves the transition between the MLCT state to a lower-energy d-d state, which promotes ligand release. There is a direct correspondence between the energy of the MLCT transition and the quantum yield of the photoreaction. For [Ru(bpy)2(4AP)CH3CN]^2+, the photoreaction yield is about φPR=0.4. Since [Ru(bpy)2(4AP)2]Cl2 presents a red-shifted band, a lower photoreaction yield is expected. An estimate based on early experiments leads to an estimate of φPR≅0.02 at 473 nm.

[6] = Quantum yield of the photoreaction; format: physicochemical
Text: as §2

[7] = Photorelease of TzGly by localized irradiation; format: physicochemical; conditions: irradiation at 470 nm, light spot diameter <1 micron

For NC(C(=O)O)c1nnn[nH]1 (racemic) [TzGly, (RS)-(tetrazol-5-yl)glycine], the “neuron spiking on addition via perfusion” value [1] was “spiking of a mouse cortical neuron”.

With [Cl][Ru][Cl].c1ccc(-c2ccccn2)nc1.c1ccc(-c2ccccn2)nc1.c1ccc(-c2ccccn2)nc1 [Ru(bpy)3Cl2, reference compound] the “action potential activity on addition to saline, before irradiation” value [2] was “without significant changes in activity” and the “action potential activity after light flash” value ([2]; ~100 μM) was “after a short time the activity decreased to the basal level”.

With [Ru(bpy)2(4AP)2]Cl2 the “time without dark decomposition” value ([3]; in the dark, UV-vis) was “more than 20 hours”, the 4AP recombination ([3]; irradiated solution after 7 hours in the dark) was “less than 4%” and the “photoreaction (photorelease of 4AP)” value [4] was 60%. The “redox potential of the couple RuIII/RuII” value [5] was 0.76 V versus Ag/AgCl, the “photoreaction yield φPR” value ([6]; at 473 nm, estimate based on early experiments) was ~0.02 and the “action potential activity on addition to saline, before irradiation” value [2] was “the activity remained unchanged”. For the same compound, the “action potential activity after light flash” value ([2]; ~100 μM) was “sudden activity was recorded and it remained high after 300 s” and the “action potential activity after second light pulse” value ([2]; ~100 μM, second light pulse at 6750 s) was “an even higher activity”.

With [Ru(bpy)2(4AP)CH3CN]^2+ the “photoreaction yield φPR” value [6] was ~0.4.

In the case of [Ru(bpy)2(TzGly)(py)]Cl2, the photorelease on irradiation [7] is reported as “photoreleased TzGly”.
